According to patent US20030119895A1, “Methods using a combination of a 3-heteroaryl-2-indolinone and a cyclooxygenase-2 inhibitor for the treatment of neoplasia” (Pharmacia Corporation, priority 1998, published 2003):
Values joined by “and” are separate entries in the source; they are usually repeats but may differ in a detail not shown here. Equal entries are not always repeated.

What was measured:
[1] = test system: HUV-EC-C cells (human umbilical vein endothelial cells); test: HUV-EC-C Assay, a-FGF (ECGF)-stimulated [3H] thymidine incorporation; type: cell-based; conditions: Homo sapiens, HUVEC, Mitogenesis in Endothelial Cells
[2] = test system: HUV-EC-C cells (human umbilical vein endothelial cells); test: HUV-EC-C Assay, VEGF-stimulated [3H] thymidine incorporation; type: cell-based; conditions: Homo sapiens, HUVEC, Mitogenesis in Endothelial Cells
Protocol: Repeat the wash two more times with D-PBS, resuspend the cells in about 1 ml assay medium/15 cm^2 of tissue culture flask.
Add cells to 96-well flat-bottom plates at 100 μl/well or 0.8-1.0×10^4 cells/well; incubate about 24 h at 37° C., 5% CO2.
Use the same assay medium as mentioned in day 0, step 2 above. Titrations are made by adding 90 μl/well of drug at 200 μM (4× the final well concentration) to the top well of a particular plate column. Since the stock drug concentration is usually 20 mM in DMSO, the 200 μM drug concentration contains 2% DMSO. Therefore, diluent made up to 2% DMSO in assay medium (F12K+0.5% fetal bovine serum) is used as diluent for the drug titrations in order to dilute the drug but keep the DMSO concentration constant. Add this diluent to the remaining wells in the column at 60 μl/well. Take 60 μl from the 120 μl of 200 μM drug dilution in the top well of the column and mix with the 60 μl in the second well of the column. Take 60 μl from this well and mix with the 60 μl in the third well of the column, and so on until two-fold titrations are completed. When the next-to-the-last well is mixed, take 60 μl of the 120 μl in this well and discard it. Leave the last well with 60 μl of DMSO/media diluent as a non-drug-containing control. Make 9 columns of titrated drug, enough for triplicate wells each for 1) VEGF (obtained from Pepro Tech Inc., catalogue no. 100-200, 2) endothelial cell growth factor (ECGF) (also known as acidic fibroblast growth factor, or aFGF) (obtained from Boehringer Mannheim Biochemica, catalogue no. […] ECGF comes as a preparation with sodium heparin.
Transfer 50 μl/well of the drug dilutions to the 96-well assay plates containing the 0.8-1.0×10^4 cells/100 μl/well of the HUV-EC-C cells from day 0 and 20 incubate ~2 h at 37° C., 5% CO2.
In triplicate, add 50 μl/well of 80 ng/ml VEGF, 20 ng/ml ECGF, or media control to each drug condition. As with the drugs, the growth factor concentrations are 4× the desired final concentration. Use the assay media from day 0 step 2 to make the concentrations of growth factors.
RPMI was obtained from Gibco BRL, catalogue no.
Freeze plates overnight at −20° C.

[3] = test system: 3T3/PDGF-βR/PDGF-BB(T) (NIH 3T3 cells expressing PDGFβ-receptor and PDGF-BB); test: SRB Assay 3: 3T3/PDGF-βR/PDGF-BB(T) Cell Growth SRB Assay; type: cell-based; conditions: Mus musculus, NIH3T3, SRB Readout, read-out: 3T3/PDGFR + PDGF (T) IC50
Protocol: Assay 3: 3T3/PDGF-βR/PDGF-BB(T) Cell Growth SRB Assay
Cell line and growth medium:
3T3/PDGF-βR/PDGF-BB(T) (NIH 3T3 clone 7 cells expressing PDGFβ-receptor and PDGF-BB, from tumors resected from athymic mice) 2% calf serum/DMEM+2 mM glutamine
This part of assay is carried out in a laminar flow hood.
1. Trypsinize cells as usual. Transfer 200 μl of cell suspension to 10 ml of isotone. Count cells on the Coulter Counter.
2. Dilute cells in growth medium to 60,000 cells/ml. Transfer 100 μl of cells to each well in a 96-well flat bottom plate to give 6000 cells/well.
3. Allow half of plate (4 rows) for each compound and quadruplicate wells for each compound concentration, a set of 4 wells for medium control and 4 wells for DMSO control.
4. Gently shake plates to allow for uniform attachment of the cells to the plate.
5. Incubate the plates at 37° C. in a 10% CO2 incubator.
Day 1: Addition of Compound: same as for Assay 1.
Day 5: Development of Assay: same as for Assay 1.
3T3/E/H+TGF-α(T): NIH 3T3 cells expressing EGFR/HER2 chimera and TGF-α, tumor-derived 3T3/EGFR+TGF-α(T): NIH 3T3 cells expressing EGFR and TGF-α, tumor-derived 3T3/PDGFR+PDGF(T): NIH 3T3 cells expressing PDGF-βR and PDGF-ββ, tumor-derived SMC: human smooth muscle cells from Clonetics

HER2 kinase = target: T1, HER2 kinase (Homo sapiens, UniProt P04626); test: HER-2 ELISA Assay 1: EGF Receptor-HER2 Chimeric Receptor Assay In Whole Cells; type: cell-based; conditions: ELISA Assay Results
T1 construct: fused on or other part: The EGFR extracellular domain serves for EGF stimulation and for capture by mAb 05-101; The HER2 part carries the kinase domain; P00533 (Epidermal growth factor receptor)
T1 sequence (P04626 720-987 limits assumed): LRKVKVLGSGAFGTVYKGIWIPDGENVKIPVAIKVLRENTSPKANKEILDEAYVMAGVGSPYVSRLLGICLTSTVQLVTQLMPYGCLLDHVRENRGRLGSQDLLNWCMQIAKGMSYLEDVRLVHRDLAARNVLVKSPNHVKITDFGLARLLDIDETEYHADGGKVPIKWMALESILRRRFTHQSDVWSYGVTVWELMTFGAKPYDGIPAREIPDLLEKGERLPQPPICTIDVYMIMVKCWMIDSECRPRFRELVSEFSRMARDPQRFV
Protocol: Assay 1 EGF Receptor-HER2 Chimeric Receptor Assay In Whole Cells. HER2 kinase activity in hole EGFR-NIH3T3 cells was measured as described below:
Materials and Reagents. The following materials and reagents were used to conduct the assay:
Anti-phosphotyrosine antibody (anti-Ptyr) (polyclonal)(see, Fendley, et al., supra).
Detection antibody: Goat anti-rabbit IgG horse radish peroxidase conjugate, TAGO, Inc., Burlingame, Calif.
Procedure. The following protocol was used:
Coated plates are good for up to 10 days when stored at 4° C.
On day of use, remove coating buffer and replace with 100 μl blocking buffer (5% Carnation Instant Non-Fat Dry Milk in PBS). Incubate the plate, shaking, at room temperature (about 23° C. to 25° C.) for 30 minutes. Just prior to use, remove blocking buffer and wash plate 4 times with TBST buffer.
An NIH3T3 cell line overexpressing a chimeric receptor containing the EGFR extracellular domain and extracellular HER2 kinase domain can be used for this assay.
Choose dishes having 80-90% confluence for the experiment. Trypsinize cells and stop reaction by adding 10% fetal bovine serum. Suspend cells in DMEM medium (10% CS DMEM medium) and centrifuge once at 1500 rpm, at room temperature for 5 minutes.
Resuspend cells in seeding medium (DMEM, 0.5% bovine serum), and count the cells using trypan blue. Viability above 90% is acceptable. Seed cells in DMEM medium (0.5% bovine serum) at a density of 10,000 cells per well, 100 μL per well, in a 96 well microtiter plate. Incubate seeded cells in 5% CO2 at 37° C. for about 40 hours.
Check seeded cells for contamination using an inverted microscope. Dilute drug stock (10 mg/ml in DMSO) 1:10 in DMEM medium, then transfer 51 to a TBST well for a final drug dilution of 1:200 and a final DMSO concentration of 1%. Control wells receive DMSO alone. Incubate in 5% CO2 at 37° C. for two hours.
Prepare EGF ligand: dilute stock EGF in DMEM so that upon transfer of 10 μl dilute EGF (1:12 dilution), 100 nM final concentration is attained.
Prepare fresh HNTG* sufficient for 100 μl per well; and place on ice.
After 120 minutes incubation with drug, add prepared SGF ligand to cells, 10 μl per well, to a final concentration of 100 nM. Control wells receive DMEM alone. Incubate, shaking, at room temperature, for 5 minutes.
Remove drug, EGF, and DMEM. Wash cells twice with PBS. Transfer HNTG* to cells, 100 μl per well. Place on ice for 5 minutes. Meanwhile, remove blocking buffer from other ELISA plate and wash with TBST as described above.
With a pipette tip securely fitted to a micropipettor, scrape cells from plate and homogenize cell material by repeatedly aspirating and dispensing the HNTG* lysis buffer. Transfer lysate to a coated, blocked, and washed ELISA plate. Incubate shaking at room temperature for one hour.
Remove lysate and wash 4 times with TBST. Transfer freshly diluted anti-Ptyr antibody to ELISA plate at 100 μl per well. Incubate shaking at room temperature for 30 minutes in the presence of the anti-Ptyr antiserum (1:3000 dilution in TBST).
Remove the anti-Ptyr antibody and wash 4 times with TBST. Transfer the freshly diluted TAGO anti-rabbit IgG antibody to the ELISA plate at 100 μl per well., Incubate shaking at room temperature for 30 minutes (anti-rabbit IgG antibody: 1:3000 dilution in TBST).
Remove TAGO detection antibody and wash 4 times with TBST. Transfer freshly prepared ABTS/H2O2 solution to ELISA plate, 100 μl per well. Incubate shaking at room temperature for 20 minutes. (ABTS/H2O2 solution: 1.0 μl 30% H2O2 in 10 ml ABTS stock).
Stop reaction by adding 50 μl 5N H2 SO4 (optional), and determine O.D. at 410 nm.
The maximal phosphotyrosine signal is determined by subtracting the value of the negative controls from the positive controls. The percent inhibition of phosphotyrosine content for extract-containing wells is then calculated, after subtraction of the negative controls.

FLK-1 receptor = target: T2, FLK-1 receptor (Mus musculus, UniProt P35918); test: FLK-1 ELISA (kinase activity of the FLK-1 receptor in FLK-1/NIH3T3 cells); type: cell-based; conditions: ELISA Assay Results, VEGF stimulation
T2 construct: expressed in transfected cells; host or cells: NIH3T3 C7#3 (FLK-1/NIH3T3)
T2 sequence (P35918 20-1345): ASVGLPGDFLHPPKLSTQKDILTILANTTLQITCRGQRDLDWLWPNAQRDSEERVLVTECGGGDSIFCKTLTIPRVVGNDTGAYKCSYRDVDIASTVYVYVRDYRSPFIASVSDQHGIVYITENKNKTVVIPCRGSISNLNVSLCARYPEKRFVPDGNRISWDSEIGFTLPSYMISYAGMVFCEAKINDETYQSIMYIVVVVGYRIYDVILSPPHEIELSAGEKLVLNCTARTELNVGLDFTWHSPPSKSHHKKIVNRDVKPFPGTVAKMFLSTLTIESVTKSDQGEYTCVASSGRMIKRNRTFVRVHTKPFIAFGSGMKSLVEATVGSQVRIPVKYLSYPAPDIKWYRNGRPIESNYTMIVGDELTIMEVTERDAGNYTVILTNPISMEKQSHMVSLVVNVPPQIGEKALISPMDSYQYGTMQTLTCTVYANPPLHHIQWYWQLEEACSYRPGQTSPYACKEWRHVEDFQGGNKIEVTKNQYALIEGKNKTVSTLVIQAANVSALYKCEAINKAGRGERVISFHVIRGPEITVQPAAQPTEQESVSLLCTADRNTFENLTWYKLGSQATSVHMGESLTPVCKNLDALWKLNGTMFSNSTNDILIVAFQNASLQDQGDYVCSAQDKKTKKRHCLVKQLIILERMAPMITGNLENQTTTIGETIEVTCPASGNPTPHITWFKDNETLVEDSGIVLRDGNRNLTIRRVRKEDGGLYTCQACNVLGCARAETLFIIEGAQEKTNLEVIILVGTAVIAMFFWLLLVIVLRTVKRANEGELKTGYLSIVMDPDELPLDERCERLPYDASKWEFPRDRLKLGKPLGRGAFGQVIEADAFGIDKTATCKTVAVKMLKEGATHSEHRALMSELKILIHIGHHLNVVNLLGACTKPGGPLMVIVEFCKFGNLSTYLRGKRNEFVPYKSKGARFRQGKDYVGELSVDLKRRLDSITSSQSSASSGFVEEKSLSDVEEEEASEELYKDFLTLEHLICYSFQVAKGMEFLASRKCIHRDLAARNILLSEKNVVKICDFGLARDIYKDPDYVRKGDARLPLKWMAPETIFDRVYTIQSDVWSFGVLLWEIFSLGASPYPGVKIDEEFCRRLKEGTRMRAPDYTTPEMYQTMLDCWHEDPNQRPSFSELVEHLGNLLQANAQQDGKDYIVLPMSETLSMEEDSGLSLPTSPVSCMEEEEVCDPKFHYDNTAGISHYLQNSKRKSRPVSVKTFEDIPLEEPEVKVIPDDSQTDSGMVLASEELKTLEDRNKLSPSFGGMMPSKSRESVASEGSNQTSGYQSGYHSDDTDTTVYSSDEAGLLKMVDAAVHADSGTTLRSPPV
Protocol: An ELISA assay was conducted to measure the kinase activity of the FLK-1 receptor and more specifically, the inhibition or activation of protein tyrosine kinase activity on the FLK-1 receptor. Specifically, the following assay was conducted to measure kinase activity of the FLK-1 receptor in FLK-1/NIH3T3 cells.
The following reagents and supplies were used:
PBS (Gibco Catalog No. 450-1300EB);
Ethanolamine stock (10% ethanolamine (pH 7.0), stored at 4° C.);
HNTG buffer (20 mM HEPES buffer (pH 7.5),150 mM NaCl, 0.2% Triton X-100, and 10% glycerol);
EDTA (0.5M (pH 7.0) as a 100× stock);
Sodium ortho vanadate (0.5M as a 100× stock);
Sodium pyro phosphate (0.2M as a 100× stock);
NIH3T3 C7#3 Cells (FLK-1 expressing cells);
VEGF, PeproTech, Inc. (catalog no. 100-20)(kept as 1 μg/100 til stock in Milli-Q dH2O and stored at −20° C. Affinity purified anti-FLK-1 antiserum, Enzymology Lab, Sugen, Inc.;
H2 02 (30% solution) (Fisher catalog no. H325);
Protocol. The following protocol was used for conducting the assay:
Coat Corning 96-well elisa plates with 1.0 μg per well Cappel Anti-rabbit IgG antibody in 0.1M Na2 CO3 pH 9.6. Bring final volume to 150 μl per well. Coat plates overnight at 4° C. Plates can be kept up to two weeks when stored at 4° C.
Grow cells in Growth media(DMEM, supplemental with 2.0 mM L-Glutamine, 10% FBS) in suitable culture dishes until confluent at 37° C., 5% CO2. […]

[4] = test system: 3T3/E/H+TGF-a(T) (NIH 3T3 cells expressing EGFR/HER2 chimera and TGF-a); test: SRB Assay 1: 3T3/E/H+TGF-a(T) Cell Growth SRB Assay; type: cell-based; conditions: Mus musculus, NIH3T3, SRB Readout
Protocol: Sulforhodamine B (SRB) Growth Assays
The assays are carried out as follows:
0.4% SRB in 1% acetic acid
compound in DMSO (100 mM or less stock solution)
Cell Line and Growth Medium:
Trypsinize cells as usual. Transfer 100 μl of cell suspension to 10 ml of isotone. Count cells with the Coulter Counter.
Gently shake plates to allow for uniform attachment of the cells.
In 96 well-round bottom plate, add 125 μl of growth medium to columns 3-11.
At this dilution, the concentration of DMSO is 0.4% for a 2× solution or 0.2% for 1× solution on the cells.
Transfer the 2× starting compound solution to quadruplicate wells in column 12 of the 96-well round bottom plate. […] Transfer 100 μl of compound dilutions onto 100 μl medium on cells in corresponding wells of 96-well flat bottom plate. Total volume per well should be 200 μl.
For vehicle control, prepare a 2× solution of DMSO at 0.4% DMSO in growth medium. […]
Read plates on Dynatech ELISA Plate Reader at 570 nm with reference at 630 nm.

EpH4-VEGF = test: Xenograft Assay 2: FLK-1/Xenograft Model, subcutaneous xenograft (In Vivo Data, EpH4-VEGF); parameters: species or system mice
Protocol: Assay 2: FLK-1/Xenograft Model
The ability of the compounds of the present invention to inhibit ovarian, melanoma, prostate, lung and mammary tumor cell lines established as SC xenografts was examined. These studies were conducted using doses ranging from 1 to 75 mg/kg/day.
Materials And Methods. The tumor cells were implanted subcutaneously into the indicated strains of mice. Treatment was initiated on day 1 post implantation unless otherwise indicated (e.g. treatment of the SCID mouse related to the A375 melanoma cell line began on Day 9). Eight (8) to sixteen (16) mice comprised each test group.
Animals. Female athymic mice (BALB/c, nu/nu), BALB/c mice, Wistar rats and Fisher 344 rats were obtained from Simonsen Laboratories (Gilroy, Calif.). Female A/I mice were obtained from Jackson Laboratory (Bar Harbor, Me.). DA rats were obtained from B&K Universal, Inc. (Fremont, Calif.). Athymic R/Nu rats, DBA/2N mice, and BALB/c mice were obtained from Harlan Sprague Dawley (Indianapolis, Ind.). Female C57BU6 mice were obtained from Taconic (Germantown, N.Y.). All animals were maintained under clean-room conditions in Micro-isolator cages with Alpha-dri bedding. They received sterile rodent chow and water ad libitum.
All procedures were conducted in accordance with the NIH Guide for the Care and Use Of Laboratory Animals.
Subcutaneous Xenograft Model. Cell lines were grown in appropriate medium as described. Cells were harvested at or near confluency with 0.05% Trypsin-EDTA and pelleted at 450×g for 10 min. Pellets were resuspended in sterile PBS or media (without FBS) to a suitable concentration indicated in the Figure legends and the cells were implanted into the hindflank of mice. Tumor growth-was measured over 3 to 6 weeks using venier calipers and tumor volumes were calculated as a product of length x width x height unless otherwise indicated. P values were calculated using the Students' t-test.
Different concentrations of a compound in 50-100 μl excipient (dimethylsulfoxide, PBTE, PBTE6C:D5W, or PBTE:D5W) were delivered by IP injection.
Results for various compounds obtained from the above-described in vivo assays are set forth at Table 5, below: […]

Structure (SMILES)	IC50 [1]	IC50 [2]	IC50 [3]	IC50 (HER2 kinase)	IC50 (FLK-1 receptor)	IC50 [4]	EpH4-VEGF % inhibition @ mg/kg (EpH4-VEGF; @ 50 mg/kg)	EpH4-VEGF % inhibition @ mg/kg (EpH4-VEGF; @ 75 mg/kg)
O=CN1CCN(c2ccc(C=C3C(=O)Nc4ccccc43)cc2)CC1 [SU4984, 3-[4-(4-Formylpiperazin-1-yl)benzylidenyl]-2-indolinone]	25.8 µM	0.8 µM	22.2 µM	90.2 µM	1.6 µM			
CN(C)c1ccc(C=C2C(=O)Nc3ccccc32)cc1 [SU4312, 3-(4-Dimethylaminobenzylidenyl)-2-indolinone]	154 µM	1.1 µM				36 µM	63% @ 50	56% @ 75 and 50% @ 75
